Assay results reported in the NIST ThermoML archive (doi:10.1016/j.jct.2014.03.023).

Tests used:
[1] = wn = mass fraction of the nth substance listed; conditions: Pendant drop shape
[2] = molar heat capacity at constant pressure; wn = mass fraction of the nth substance listed; conditions: 101 kPa, Liquid, Small sample (50 mg) DSC

CC[n+]1ccc(C)cc1.O=S(=O)([N-]S(=O)(=O)C(F)(F)F)C(F)(F)F + CCn1cc[n+](C)c1.N#CN=C=[N-]
Conditions	molar heat capacity at constant pressure, w2 = 0 [J/K/mol]	molar heat capacity at constant pressure, w2 = 0.25 [J/K/mol]	molar heat capacity at constant pressure, w2 = 0.5 [J/K/mol]	molar heat capacity at constant pressure, w2 = 0.75 [J/K/mol]	surface tension liquid-gas, w2 = 0 [mN/m]	surface tension liquid-gas, w2 = 0.25 [mN/m]	surface tension liquid-gas, w2 = 0.5 [mN/m]	surface tension liquid-gas, w2 = 0.75 [mN/m]
[1], 298.2 K	–	–	–	–	24.3	40.8	45.8	52
[1], 303.2 K	–	–	–	–	23.9	40.3	45.3	51.5
[1], 313.2 K	–	–	–	–	23.1	39.2	44.1	50.3
[1], 323.2 K	–	–	–	–	22.2	38	42.8	49
[2], 296.2 K	627	504	421	363	–	–	–	–
[2], 300.2 K	634	509	425	366	–	–	–	–
[2], 304.2 K	637	512	427	369	–	–	–	–
[2], 308.2 K	640	514	430	371	–	–	–	–
[2], 312.2 K	644	517	433	374	–	–	–	–
[2], 316.2 K	647	520	436	376	–	–	–	–
[2], 320.2 K	649	522	438	378	–	–	–	–
[2], 324.2 K	652	524	441	381	–	–	–	–
[2], 328.2 K	655	528	444	383	–	–	–	–
[2], 332.2 K	659	532	448	387	–	–	–	–
[2], 336.2 K	665	537	451	390	–	–	–	–
[2], 340.2 K	669	541	455	393	–	–	–	–
[2], 344.2 K	674	546	459	397	–	–	–	–
[2], 348.2 K	679	550	463	400	–	–	–	–
[2], 352.2 K	685	555	467	404	–	–	–	–
[2], 356.2 K	691	560	472	407	–	–	–	–
[2], 360.2 K	697	565	477	411	–	–	–	–
[2], 364.2 K	703	570	481	415	–	–	–	–
[2], 368.2 K	708	576	486	419	–	–	–	–
[2], 372.2 K	715	584	492	424	–	–	–	–
